Data on one compound can be found in article PMC10290335 (Malaria Journal, 2023).

In brackets after ≈: the same amount, converted by molar mass. Like-named read-outs stand apart in the source and are kept apart here.

For data set [1] the following is noted: cited from earlier work.
The test system of the next data set is Aedes aegypti. The settings on record: cited from earlier work.
The test system of the next data set is An. gambiae. The settings on record: cited from earlier work.
For data set [2] the following is noted: plasma, single oral 12 mg ivermectin, mean ± SD; cited from earlier work.
The target of a further data set is T1, rh CYP3A5 supersomes (Homo sapiens, UniProt P20815).
T1 construct: purchased Corning Life Sciences B.V. (Amsterdam, The Netherlands)
The data set can be described thus: Ivermectin metabolism by recombinant human CYP3A5 supersomes. Format: in vitro ADME. The following applies: 10 µM ivermectin, within 1 h. Here is the method:
(§1) The assay mixture was heated for 10 min at 37 °C in a Thermomixer 5436 (Eppendorf, Hamburg, Germany) and the reaction was initiated by the addition of supersomes. Samples (50 μL) were taken after 0, 15, 30, 45, and 60 min. […] After centrifugation (30 min at 3220×g and 15 °C, 5810 R Eppendorf centrifuge), sample supernatants (10 µL) were analysed by LC–MS/MS. Metabolite production was quantified by dividing the metabolite peak area with the ISTD peak area. Each metabolism assay was performed in triplicate.

Data set [3] relates to Anopheles stephensi mosquitoes. The data set can be described thus: Anopheles stephensi membrane feeding screening assay (survival and activity). The settings on record: for Average activity score: score +2 flying, +1 moving, 0 dead. The data set is classed as in vivo. As to the method:
The final DMSO content in blood was 0.1%, which was also the DMSO concentration used for the negative control assays (0.1% DMSO in blank blood). Inclusion of blank fractions as additional negative controls were not considered, because it would not have been feasible to also test the corresponding blank fraction for each metabolite fraction (F1–F9). The blood preparations were rotated at room temperature for 20 min to ensure a uniform metabolite distribution (Rotator Genie, Scientific Industries, Bohemia, USA). The dissolution of the metabolites was confirmed by LC–MS/MS.
Around 50–70 female mosquitoes aged 5–10 days post-emergence were transferred with a mouth aspirator into 20 mL paper cups. A piece of mosquito netting was used to cover the cups. Mosquitoes were starved for 24 h before treatment. The mosquito blood meals were heated in a water bath (SAHARA PPO S5P Heated Bath Circulators, Thermo Fisher Scientific, New Hampshire, USA) for 20 min at 39 °C. A Petri dish (35 mm × 10 mm, BD, Franklin Lakes, USA) was filled with 3 mL of warm blood, sealed with a piece of sealing film (Parafilm®, Huberlab AG, Aesch, Switzerland). The Petri dish was placed upside down on top of the net sealing the paper cup. Female mosquitoes were allowed to feed for 20 min on the blood through the net and the sealing film. The feeding was conducted in a climate chamber (HPP110, Memmert GmbH + Co.KG, Schwabach, Germany) at 27 °C, 70% humidity, and 30% light intensity. After feeding, the cups were put on ice to immobilise the mosquitoes and only the fully engorged mosquitoes were selected for the assay. The mosquitoes were returned to the climate chamber to assess their activity and survival for 3 days.
In the framework of screening assays, mosquitoes were treated with blood containing each metabolite corresponding to Cmax levels observed in PK samples. […] In screening assays, eleven treatments were evaluated with three replicates using three batches of 50–70 mosquitoes.

A further data set concerns the target T2, rh CYP3A4 supersomes (Homo sapiens, UniProt P08684).
T2 construct: purchased Corning Life Sciences B.V. (Amsterdam, The Netherlands)
The data set can be described thus: Ivermectin metabolism by recombinant human CYP3A4 supersomes. Format: in vitro ADME. The settings on record: 10 µM ivermectin, within 1 h. As to the method: as §1

Data set [4] relates to Anopheles stephensi mosquitoes. As to the kind of experiment: 3-day LC50 in Anopheles stephensi (membrane feeding, dilutions). The settings on record: 72 h after blood feeding. Format: in vivo. As to the method:
A pilot test was performed to evaluate optimal dilutions matching the expected LC50 values (data not shown).
Student's t test was adopted to test the significance of all mean survival differences between groups, using the R package ggsignif (version 0.6.4). Survival analyses, summary and visualisation of survival analysis were computed using the GNU R packages survival (version 3.1-8) and survminer (version 0.4.9). Replicates were pooled and analysed by the logrank test and the hazard ratio with 95% confidence intervals. LC50 in An. stephensi mosquito were approximated with regression analysis, using GNU R package drc (version 3.0-1) for analysis of dose–response curves (Additional file 1: Fig. S3). The time above LC50 estimation (Additional file 1: Fig. S4) was computed using the GNU R package data.table (version 1.14.6).

For the next data set, the system named is An. stephensi. The following applies: cited from earlier work.

T1 sequence (P20815 whole entry): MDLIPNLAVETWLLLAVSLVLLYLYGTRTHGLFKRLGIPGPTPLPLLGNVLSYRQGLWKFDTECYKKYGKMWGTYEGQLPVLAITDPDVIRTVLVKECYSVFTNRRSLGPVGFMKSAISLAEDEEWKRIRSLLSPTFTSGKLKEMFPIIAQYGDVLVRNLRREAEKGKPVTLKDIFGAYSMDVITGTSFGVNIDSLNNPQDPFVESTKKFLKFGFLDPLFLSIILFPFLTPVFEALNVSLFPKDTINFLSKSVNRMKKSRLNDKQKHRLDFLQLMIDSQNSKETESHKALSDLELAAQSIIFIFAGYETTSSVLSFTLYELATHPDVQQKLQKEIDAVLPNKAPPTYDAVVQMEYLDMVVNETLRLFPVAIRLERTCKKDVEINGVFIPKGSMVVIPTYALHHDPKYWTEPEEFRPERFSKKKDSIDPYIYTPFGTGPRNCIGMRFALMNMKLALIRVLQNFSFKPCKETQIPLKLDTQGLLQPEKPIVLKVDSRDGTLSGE
T2 sequence (P08684 whole entry): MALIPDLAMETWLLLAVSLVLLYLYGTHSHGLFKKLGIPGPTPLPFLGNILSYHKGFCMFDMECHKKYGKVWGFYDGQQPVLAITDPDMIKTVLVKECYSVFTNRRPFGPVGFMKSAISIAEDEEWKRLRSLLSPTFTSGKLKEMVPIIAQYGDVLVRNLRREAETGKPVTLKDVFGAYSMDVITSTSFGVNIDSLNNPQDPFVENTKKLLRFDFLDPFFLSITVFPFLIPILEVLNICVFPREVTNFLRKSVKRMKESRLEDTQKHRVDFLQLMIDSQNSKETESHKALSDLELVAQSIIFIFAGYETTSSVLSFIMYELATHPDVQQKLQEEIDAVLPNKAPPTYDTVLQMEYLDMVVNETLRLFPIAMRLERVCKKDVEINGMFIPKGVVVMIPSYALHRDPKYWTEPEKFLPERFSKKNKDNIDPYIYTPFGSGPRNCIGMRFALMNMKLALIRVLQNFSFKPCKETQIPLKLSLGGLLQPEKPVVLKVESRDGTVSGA

`CCC(C)C1OC2(CCC1C)CC1CC(CC=C(C)C(OC3CC(OC)C(OC4CC(OC)C(O)C(C)O4)C(C)O3)C(C)C=CC=C3COC4C(O)C(C)=CC(C(=O)O1)C34O)O2` (stereo not shown) [Ivermectin, 22,23-dihydroavermectin B1a, reference compound]: the estimated half-life in data set [1] is 24 to 72 h. Also, in data set [1] (single oral dose of 150 µg/kg), the peak concentration entry is “around 40 ng/mL”. In addition, the “time of peak concentration” value in data set [1] (single oral dose of 150 µg/kg) is on record as “Approximately 4 h”. Besides, the “LC50 within 7-days” value in the data set on Aedes aegypti is 178 to 187 ng/mL. The 7-day-LC50 in the data set on An. gambiae (blood fed from treated humans) is listed as 3.4 ng/mL; in the data set on An. gambiae (spiked ivermectin experiments (in vitro mixture)), 15.9 ng/mL. In addition, the maximum concentration (Cmax) (in general, the highest concentration seen after dosing) in [2] was 70.7 ± 16.1 ng/mL. Moreover, the Half-life in [2] is on record as 38.9 ± 20.8 h. In addition, the Tmax (as a rule, the time from dosing to the highest level) in [2] was 4.4 ± 1.4 h. The values for the ivermectin metabolised on rh CYP3A5 supersomes and at rh CYP3A4 supersomes were 20% and 80%, respectively. The Average activity score in data set [3] (0 h post feeding) is 2.00; in data set [3] (24 h post feeding) it was 0.71 ± 0.05; in [3] (24 h post feeding, listed as IVM), 0.71; in [3] (48 h post feeding) it was 0.03 ± 0.02; in [3] (48 h post feeding, listed as IVM) it was 0.03; in data set [3] (72 h post feeding) it was 0. In addition, the “mean survival of mosquitoes after blood meal” value in data set [3] (blood meal at Cmax level) was “decreased”. Moreover, the “mosquitoes dead after 72 h” value in data set [3] (blood meal at Cmax level (ivermectin 50 ng/mL), 72 h after treatment) is given as 100%. Moreover, in [4], the “3-day LC50” value came out at 3.07 ng/mL. For the same compound, the LC50 (usually the concentration lethal to half of the exposed cells or organisms) in [4] (Anopheles stephensi, 72 h) is around 3 ng/mL (≈ 3.43 nM). The 4-day-LC50 with An. stephensi is 7 ng/mL.
